Data on 17 compounds can be found in ChEMBL document CHEMBL1201862, “PubChem BioAssay data set” (2004).

A word on the GI50: it is the concentration that inhibits growth by half.

Some test systems named below: KM-20L2; SNB-78; LXFL 529; HOP-18; MDA-MB-435; BT-549; T47D; XF498; RXF 631.
Assay in all cases: DTP human tumour cell line panel, 48 h

Structures are written as SMILES.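 Growth conditions: 96-well plates. Treatment: test compound, 48 hours, 5 concentrations. Analysis: linear interpolation between bracketing concentrations; unreached endpoints set to highest concentration. Here, GI50 denotes the concentration required for 50% inhibition of growth.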 The source made the active and inactive calls. Rule as the data show it: active = GI50 up to about 1.1 µM and inactive = higher. A value given as a limit tells only on which side of the number the result lay.

Consider `Cc1cc(O)nc(NN2C(Cl)C(=O)C2c2cccc(Cl)c2)n1` (centres undefined), for which the GI50 in the assay with KM-20L2 was 32.9 µM (inactive); in the assay with SNB-78, 22.2 µM (inactive); with LXFL 529, > 10 µM (inactive); in the assay on HOP-18 it was 24 µM (inactive).

As to `O=c1ccc2ccc(CBr)cc2o1`, the figures for the GI50 in the assay with MDA-MB-435, in the assay with BT-549 and in the assay with T47D were 3.14 µM (inactive), 3 µM (inactive) and 2.38 µM (inactive), respectively.

On to `COc1cc2c(cc1O)N=C[C@@H]1CC[C@@H](O)N1C2=O.COc1cc2c(cc1O)N=C[C@@H]1CC[C@H](O)N1C2=O`, for which the GI50 in the assay with XF498 is 0.48 µM (active); in the assay with KM-20L2 it was 1.72 µM (inactive); in the assay on SNB-78, 0.631 µM (active); in the assay with HOP-18, 0.863 µM (active).

On to `COC(=O)Cc1c(/C=C/C(C)(C)n2cnc(CCN3C(=O)CCC3=O)c2)[nH]c2ccccc12`, for which the GI50 in the assay with MDA-MB-435 is > 100 µM (inactive); with BT-549, > 100 µM (inactive); in the assay on T47D, 22.3 µM (inactive).

For `COc1ccc2nc(-n3c(/C=C/c4ccccc4O)nc4ccccc4c3=O)sc2c1`, the GI50 was 19.7 µM (inactive) in the assay with MDA-MB-435 and 27.5 µM (inactive) in the assay with BT-549.

As to `COc1cc(C2S/C(=C/c3ccccc3)C(=O)N2c2ccccc2Cl)cc(OC)c1OC` (centres undefined), the GI50 in the assay with MDA-MB-435 is 15.6 µM (inactive); in the assay with BT-549 it was 29.3 µM (inactive); in the assay with T47D it was 5.26 µM (inactive).

In the case of `C=C1C(=O)O[C@@H]2[C@H](O)[C@@H](C)[C@@H]3C=CC(=O)[C@@]3(C)[C@@H](OC(=O)/C(C)=C/C)[C@H]12`, the GI50 in the assay on XF498 is 0.471 µM (active); in the assay on KM-20L2, 1.75 µM (inactive); with SNB-78, 0.871 µM (active); in the assay on HOP-18, 1.9 µM (inactive).

As to `Nc1nc(Cl)nc2c1ncn2C1CC(O)C(CO)O1` (centres undefined), the GI50 in the assay with KM-20L2 is 2.42 µM (inactive); in the assay with SNB-78 it was > 100 µM (inactive); in the assay on HOP-18 it was > 100 µM (inactive).

As to `C[C@H](N[C@H]1CCC[C@]1(O)C#Cc1ccc2c(c1)OCO2)c1ccccc1`, the GI50 was > 25 µM (inactive) in the assay with MDA-MB-435 and 21.8 µM (inactive) with T47D.

For `C/C(CC(=O)Nc1ccccc1)=N\NC(N)=S`, the GI50 in the assay with XF498, with KM-20L2, in the assay on SNB-78 and with LXFL 529 was > 100 µM (inactive) throughout.

Turning to `Cc1ccc(S(=O)(=O)NNC(=O)Nc2ccc(Cl)cc2)cc1`, the GI50 with MDA-MB-435 and in the assay on T47D was > 100 µM (inactive) each time.

For `Clc1nc(-[n+]2ccc(-c3ccncc3)cc2)nc(Nc2ccccc2)c1Cl`, the results for the GI50 in the assay on MDA-MB-435, in the assay on BT-549 and with T47D were > 100 µM (inactive), > 100 µM (inactive) and 43.7 µM (inactive), respectively.

Take `COc1ccc(NC(C)=O)cc1N1C(=O)/C(=C\c2ccccc2)SC1c1cc(OC)c(OC)c(OC)c1` (centres undefined): the GI50 in the assay on MDA-MB-435 is 24.9 µM (inactive); in the assay on BT-549, 47.4 µM (inactive); in the assay on T47D, 40.1 µM (inactive).

On to `O/N=C\c1cc(O)c(O)c(/C=N/O)c1`, for which the GI50 with MDA-MB-435 is 38.8 µM (inactive); in the assay on BT-549, 79.1 µM (inactive); in the assay with T47D, 36.1 µM (inactive).

As for `O=Cc1ccccc1CCn1c(=O)c2cc3c(=O)n(CCc4ccccc4C=O)c(=O)c3cc2c1=O`, the GI50 in the assay with SNB-78 and in the assay on LXFL 529 was > 100 µM (inactive) in each case.

With `CC(C)(C)c1ccc2c(c1)OP1(Oc3c(Cl)cc(Cl)c4cccnc34)(O2)Oc2ccc(C(C)(C)C)cc2O1`, the GI50 in the assay with XF498 was 13.5 µM (inactive); with KM-20L2, 4.92 µM (inactive); in the assay with SNB-78, 23 µM (inactive); in the assay on HOP-18 it was 9.98 µM (inactive).

As to `COC(=O)C(Cc1ccc2c(c1)OCO2)(NC(=O)c1ccccc1)P(=O)(OC)OC` (centres undefined), the GI50 in the assay on XF498, in the assay with KM-20L2, in the assay on SNB-78, in the assay on LXFL 529 and with RXF 631 was > 100 µM (inactive) in each case.
